Values of other authors, collected in EP1136875A2, “Small 3D emulsions with enhanced photographic response” (EASTMAN KODAK COMPANY, priority 2000, dated 2001).

Conditions: value is for the conjugate acid of the printed base

pKa's in water of the conjugate acids of some useful bases | Compound
4.65 | C[N+](C)(C)[O-] [(CH3)3N^+–O^-]
3.33 | CC(=O)S [CH3–COS^-]
3.67 | CC(=O)NCC(=O)O [CH3–CO–NH–CH2–CO2^-]
